≈ marks a conversion by molar mass, not a printed value. Where two headings read alike, the source gives them in different places.
Columns and labels:
[1] = molecular target: T1, JAK1-JH2 domain (Homo sapiens, UniProt P23458); assay: Binding activity test for JAK1 JH2 domain (Tb-antibody/tracer FRET); settings: read-out: JAK1 JH2 Binding IC50
T1 construct: JAK1-JH2 domain or TYK2-JH2 domain enzyme
Experimental: Binding Activity test for JH2 domain of JAK and TYK2
75 nL DMSO for high control and low control.
For low control, add 5 μL/well assay buffer. […] After enzyme system prepared, add 5 μL of Tb-antibody solution into each wells of assay plate. […] After Tb-antibody added, also add 5 μL of tracer into the assay plate. […] Incubate for 60 mins at 25° C. firstly and then continue to incubate the plate at 4° C. overnight. Read by envision in FRET mode. The Luminescence value was recorded by a multi-label reader Envision (PerkinElmer). Inhibition Rate was calculated relative to vehicle (DMSO) treated control wells using following formula:
wherein • RLU_compound=the relative light unit of cells treated with test compounds • RLU_low control=the relative light unit of medium with DMSO only • RLU_high control=the relative light unit of cells treated with DMSO only

[2] = Kinetic solubility; assay type: physicochemical; settings: 100 mM pH 7.4 phosphate buffer, 1% DMSO, room temperature, read-out: Kinetics Solubility_PBS7.4
Experimental: Aliquots of 8 μL of reference and test compound stock solutions (10 mM/5 mM) are added into 792 μL of 100 mM pH 7.4 phosphate buffer. The final DMSO concentration is 1%. Sample tubes are shaken for 2 hours at 1000 rpm at room temperature. Samples are centrifuged at 12000 rpm for 10 min to precipitate un-dissolved particles. And transfer the supernatants to a new tube or plate. Add 5 μL of samples (no diluted, 10 times diluted and 100 times diluted) and standard curve samples to 95 μL of ACN containing IS for LC-MS/MS analysis.

[3] = Microsomal metabolic stability assay; assay type: in vitro ADME, human; settings: for half-life at 1 µM / microsomal CLint at 1 µM: human, liver microsomes, pH 7.4, human liver microsomes 0.5 mg/mL; for half-life at 1 µM: read-out: Human LM T½; for microsomal CLint at 1 µM: read-out: Human LM Clint
Experimental: Microsomal Metabolic Stability Assay
Microsomes were pre-incubated with test compound or control compounds for 5 min at 37° C. in 100 mM potassium phosphate buffer, pH 7.4, 1.0 mM EDTA. The reaction was initiated by addition of 15 μL of the NADPH regenerating system to 30 μL of each incubation mixture per time point. The final incubation condition was composed of 0.5 mg/mL microsomal protein, 1 μM test article/positive control, 2 mM NADPH. The 0-minute samples were prepared by addition of a 30 μL aliquot of each incubation mixture to 135 μL quench reagent to precipitate proteins. And then a 15 μL aliquot of the NADPH regenerating system was added. At 5, 15, 30 and 45 minutes, the reaction will be stopped by the addition of cold acetonitrile solution containing internal standard. The samples taken at all time points were centrifuged at 5000×g for 15 minutes. 50 μL of supernatant are taken into 96-well assay plates pre-added with 50 μL ultrapure water, and then analyzed by LC/MS/MS.
Concentrations of test articles, control compounds in the samples were determined by using LC/MS/MS method. Plotting of the chromatograms and peak area integrations are carried out by Analyst (AB Sciex).
In the determination of the in vitro elimination constant (ke) of the control compounds, the analyte/internal standard peak area ratios will be converted to percentage remaining (% Remaining) with the following equation:
The CLint of microsomes was calculated using the formula: CLint (mic)=0.693/T1/2/mg microsome protein per mL. The slope was measured by the natural logarithm of the percentage of the residual compound and time, T1/2 was calculated according to the following formula.

[4] = molecular target: T2, TYK2-JH2 domain (Homo sapiens, UniProt P29597); assay: Binding activity test for TYK2 JH2 domain (Tb-antibody/tracer FRET); settings: for JAK1/TYK2 selectivity: ratio of JAK1 JH2 to TYK2 JH2 binding IC50; for IC50: read-out: TYK2 JH2 Binding IC50
T2 construct: JAK1-JH2 domain or TYK2-JH2 domain enzyme
T2 sequence (P29597 589-875 limits assumed): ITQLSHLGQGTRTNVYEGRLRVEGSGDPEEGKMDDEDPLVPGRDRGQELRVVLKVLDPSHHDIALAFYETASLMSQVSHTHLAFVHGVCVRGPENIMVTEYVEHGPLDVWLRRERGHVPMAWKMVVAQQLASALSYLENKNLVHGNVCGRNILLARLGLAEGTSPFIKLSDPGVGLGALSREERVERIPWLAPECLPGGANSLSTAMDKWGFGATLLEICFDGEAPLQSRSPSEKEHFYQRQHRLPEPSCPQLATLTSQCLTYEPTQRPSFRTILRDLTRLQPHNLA

[5] = human liver microsomes 0.5 mg/mL, 1 μM

T1 sequence (P23458 583-855 limits assumed): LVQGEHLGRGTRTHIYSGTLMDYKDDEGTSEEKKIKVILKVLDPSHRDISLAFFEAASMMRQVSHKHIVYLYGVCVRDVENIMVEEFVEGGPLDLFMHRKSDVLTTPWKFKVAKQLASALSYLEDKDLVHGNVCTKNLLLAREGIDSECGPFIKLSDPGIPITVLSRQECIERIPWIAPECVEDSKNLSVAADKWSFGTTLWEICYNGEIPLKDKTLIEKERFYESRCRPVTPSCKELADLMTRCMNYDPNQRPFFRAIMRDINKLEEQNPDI

Q: With `[2H]C([2H])([2H])NC(=O)c1cnc(NC(=O)C2CC2)cc1Nc1ncc2cnn(C(C)C(F)(F)F)c2c1OC` (single isomer, unassigned) [Example 3B, (S*)-6-(Cyclopropanecarboxamido)-4-((7-methoxy-1-(1,1,1-trifluoropropan-2-yl)-1H-pyrazolo[4,3-c]pyridin-6-yl)amino)-N-(methyl-d3)nicotinamide] as the compound, how does the IC50 [1] read?
A: The IC50 was 114 nM.

Q: And the solubility kinetic at 2 h ([2]; aqueous buffer)?
A: Its solubility kinetic at 2 h is 12.8 µM (≈ 6.13 µg/mL).

Q: What about the “Human LM Clint” value [3, 5] of the same compound?
A: The value was 5.33 µL/min/mg.

Q: And the half-life at 1 µM [3]?
A: Its half-life at 1 µM is 4.33 h.

Q: And the JAK1/TYK2 selectivity [4]?
A: Its JAK1/TYK2 selectivity is 141.36.

Q: And the IC50 [4]?
A: The IC50 was 0.805 nM.

Q: What does the source list for `[2H]C([2H])([2H])NC(=O)c1cnc(NC(=O)C2CC2)nc1Nc1ncc2cnn(CC(C)(F)F)c2c1OC` [Example 28, 2-(Cyclopropanecarboxamido)-4-((1-(2,2-difluoropropyl)-7-methoxy-1H-pyrazolo[4,3-c]pyridin-6-yl)amino)-N-(methyl-d3)pyrimidine-5-carboxamide]?
A: IC50 [1]: > 298 nM; solubility kinetic at 2 h ([2]; aqueous buffer): 20.6 µM (≈ 9.55 µg/mL); IC50 [4]: > 298 nM

Q: For `[2H]C([2H])([2H])NC(=O)c1cnc(NC(=O)[C@@H]2C[C@@H]2F)cc1Nc1ncn2ncc(C(C)C(F)(F)F)c2c1OC` (stereo partly drawn) [Example 13, 6-((1S,2S)-2-fluorocyclopropane-1-carboxamido)-4-((4-methoxy-3-(1,1,1-trifluoropropan-2-yl)pyrazolo[1,5-c]pyrimidin-5-yl)amino)-N-(methyl-d3)nicotinamide], which IC50 [1] is on record?
A: Its IC50 is greater than 298 nM.

Q: And the microsomal CLint at 1 µM [3]?
A: Its microsomal CLint at 1 µM is 25.4 µL/min/mg.

Q: What about the half-life at 1 µM [3] of the same compound?
A: The half-life at 1 µM was 0.908 h.

Q: What about the JAK1/TYK2 selectivity [4] of the same compound?
A: Its JAK1/TYK2 selectivity is greater than 175.38.

Q: What about the IC50 [4] of the same compound?
A: The IC50 was 1.7 nM.

Q: What does the source list for `[2H]C([2H])([2H])NC(=O)c1cnc(NC(=O)C2CC2)cc1Nc1ccc2ncn(CC(F)(F)F)c2c1OC` [Example 27, 6-(Cyclopropanecarboxamido)-4-((7-methoxy-1-(2,2,2-trifluoroethyl)-1H-benzo[d]imidazol-6-yl)amino)-N-(methyl-d3)nicotinamide]?
A: IC50 [1]: > 298 nM; solubility kinetic at 2 h ([2]; aqueous buffer): 44.2 µM (≈ 20.6 µg/mL); JAK1/TYK2 selectivity [4]: >107.8; IC50 [4]: 2.77 nM

Q: With `[2H]C([2H])([2H])NC(=O)c1cnc(NC(=O)C2CC2)cc1Nc1ncc2ccn(CC)c2c1OC` [Example 18, 6-(Cyclopropanecarboxamido)-4-((1-ethyl-7-methoxy-1H-pyrrolo[3,2-c]pyridin-6-yl)amino)-N-(methyl-d3)nicotinamide] as the compound, how does the IC50 [1] read?
A: The IC50 was 4.09 nM.

Q: What about the solubility kinetic at 2 h ([2]; aqueous buffer) of the same compound?
A: Its solubility kinetic at 2 h is 41.5 µM (≈ 17.1 µg/mL).

Q: What about the JAK1/TYK2 selectivity [4] of the same compound?
A: Its JAK1/TYK2 selectivity is 83.55.

Q: What about the IC50 [4] of the same compound?
A: The IC50 was 0.049 nM.

Q: Which results are given for `[2H]C([2H])([2H])NC(=O)c1cnc(Nc2ccc(N3CCOCC3)cn2)cc1Nc1ccn2ncc(C#N)c2c1OC` [Example 6, 4-((3-Cyano-4-methoxypyrazolo[1,5-a]pyridin-5-yl)amino)-N-(methyl-d3)-6-((5-morpholinopyridin-2-yl)amino)nicotinamide]?
A: IC50 [1]: 0.703 nM; microsomal CLint at 1 µM [3]: 28.4 µL/min/mg; half-life at 1 µM [3]: 0.814 h; JAK1/TYK2 selectivity [4]: 4.48; IC50 [4]: 0.157 nM

Q: Which results are given for `[2H]C([2H])([2H])NC(=O)c1cnc(NC(=O)[C@H]2C[C@H]2F)cc1Nc1ncc2cnn(CC(F)(F)F)c2c1OC` [Example 10, 6-((1R,2R)-2-fluorocyclopropane-1-carboxamido)-4-((7-methoxy-1-(2,2,2-trifluoroethyl)-1H-pyrazolo[4,3-c]pyridin-6-yl)amino)-N-(methyl-d3)nicotinamide]?
A: IC50 [1]: 35.1 nM; solubility kinetic at 2 h ([2]; aqueous buffer): 29 µM (≈ 14 µg/mL); microsomal CLint at 1 µM [3]: 4.49 µL/min/mg; half-life at 1 µM [3]: 5.15 h; JAK1/TYK2 selectivity [4]: 86.04; IC50 [4]: 0.408 nM

Q: With `[2H]C([2H])([2H])NC(=O)c1cnc(NC(=O)C2CC2)cc1Nc1ncc2ncn(CC(C)(F)F)c2c1OC` [Example 14, 6-(Cyclopropanecarboxamido)-4-((1-(2,2-difluoropropyl)-7-methoxy-1H-imidazo[4,5-c]pyridin-6-yl)amino)-N-(methyl-d3)nicotinamide] as the compound, how does the IC50 [1] read?
A: Its IC50 is 38.8 nM.

Q: What about the solubility kinetic at 2 h ([2]; aqueous buffer) of the same compound?
A: The solubility kinetic at 2 h was 16.9 µM (≈ 7.82 µg/mL).

Q: What about the microsomal CLint at 1 µM [3] of the same compound?
A: Its microsomal CLint at 1 µM is 39.2 µL/min/mg.

Q: And the half-life at 1 µM [3]?
A: The half-life at 1 µM was 0.589 h.

Q: And the JAK1/TYK2 selectivity [4]?
A: The JAK1/TYK2 selectivity was 217.86.

Q: And the IC50 [4]?
A: The IC50 was 0.178 nM.

Q: Which results are given for `CCC(=O)c1cnc(NC(=O)C2CC2)cc1Nc1ccc2cn[nH]c2c1OC` [Example 34, N-(4-((7-methoxy-1H-indazol-6-yl)amino)-5-propionylpyridin-2-yl)cyclopropanecarboxamide]?
A: IC50 [1]: 31.7 nM; microsomal CLint at 1 µM [3]: 480 µL/min/mg; half-life at 1 µM [3]: 0.0482 h; JAK1/TYK2 selectivity [4]: 8.0; IC50 [4]: 3.94 nM

Q: What does the source list for `[2H]C([2H])([2H])NC(=O)c1cnc(Nc2ccn(C)n2)cc1Nc1ncc2cnn(CC(C)(F)F)c2c1OC` [Example 22, 4-((1-(2,2-Difluoropropyl)-7-methoxy-1H-pyrazolo[4,3-c]pyridin-6-yl)amino)-N-(methyl-d3)-6-((1-methyl-1H-pyrazol-3-yl)amino)nicotinamide]?
A: IC50 [1]: 297 nM; solubility kinetic at 2 h ([2]; aqueous buffer): 19.8 µM (≈ 9.39 µg/mL); microsomal CLint at 1 µM [3]: 9.25 µL/min/mg; half-life at 1 µM [3]: 2.5 h; JAK1/TYK2 selectivity [4]: 113.31; IC50 [4]: 2.62 nM

Q: With `[2H]C([2H])([2H])NC(=O)c1cnc(NC(=O)[C@H]2C[C@H]2F)cc1Nc1ncc2cnn(CC(C)(F)F)c2c1OC` [Example 11, 4-((1-(2,2-Difluoropropyl)-7-methoxy-1H-pyrazolo[4,3-c]pyridin-6-yl)amino)-6-((1R,2R)-2-fluorocyclopropane-1-carboxamido)-N-(methyl-d3)nicotinamide] as the compound, how does the IC50 [1] read?
A: Its IC50 is 73.8 nM.

Q: And the microsomal CLint at 1 µM [3]?
A: Its microsomal CLint at 1 µM is 2.86 µL/min/mg.

Q: And the half-life at 1 µM [3]?
A: The half-life at 1 µM was 8.09 h.

Q: And the JAK1/TYK2 selectivity [4]?
A: Its JAK1/TYK2 selectivity is 227.16.

Q: What about the IC50 [4] of the same compound?
A: The IC50 was 0.325 nM.

Q: Which results are given for “(R*)-6(Cyclopropanecarboxamido)-4((7-methoxy-1-(1,1,1-trifuoropropan-2-yl)-1H-pyrazolo[4,3-c]pyridin-6-yl)amino)-N-(methyl-d3)nicotinamide [Example 3A]”?
A: IC50 [1]: > 298 nM; solubility kinetic at 2 h [2]: 19.05 µM; Human LM Clint [3, 5]: 6.20 µL/min/mg; Human LM T½ [3, 5]: 3.7278 h; JAK1/TYK2 selectivity [4]: >34.94; IC50 [4]: 8.54 nM

Q: Which results are given for `[2H]C([2H])([2H])NC(=O)c1cnc(Nc2ccc(N3CCOCC3)cn2)nc1Nc1ccn2ncc(C#N)c2c1OC` [Example 7, 4-((3-Cyano-4-methoxypyrazolo[1,5-a]pyridin-5-yl)amino)-N-(methyl-d)-2-((5-morpholinopyridin-2-yl)amino)pyrimidine-5-carboxamide]?
A: IC50 [1]: 10.7 nM; microsomal CLint at 1 µM [3]: 28.1 µL/min/mg; half-life at 1 µM [3]: 0.822 h; JAK1/TYK2 selectivity [4]: 26.60; IC50 [4]: 0.404 nM

Q: Which results are given for `[2H]C([2H])([2H])NC(=O)c1cnc(Nc2cc(CN3CCOCC3)n(C)n2)cc1Nc1ccc2cnn(CC#N)c2c1OC` [Example 12, 4-((1-(Cyanomethyl)-7-methoxy-1H-indazol-6-yl)amino)-N-(methyl-d3)-6-((1-methyl-5-(morpholinomethyl)-1H-pyrazol-3-yl)amino)nicotinamide]?
A: IC50 [1]: 1.62 nM; solubility kinetic at 2 h ([2]; aqueous buffer): 7.21 µM (≈ 3.85 µg/mL); JAK1/TYK2 selectivity [4]: 8.55; IC50 [4]: 0.189 nM

Q: For `[2H]C([2H])([2H])NC(=O)c1cnc(Nc2ccc(F)cn2)cc1Nc1ncc2cnn(CC(C)(F)F)c2c1OC` [Example 21, 4-((1-(2,2-Difluoropropyl)-7-methoxy-1H-pyrazolo[4,3-c]pyridin-6-yl)amino)-6-((5-fluoropyridin-2-yl)amino)-N-(methyl-d3)nicotinamide], which IC50 [1] is on record?
A: The IC50 was 140 nM.

Q: What about the microsomal CLint at 1 µM [3] of the same compound?
A: Its microsomal CLint at 1 µM is 16.3 µL/min/mg.

Q: And the half-life at 1 µM [3]?
A: Its half-life at 1 µM is 1.41 h.

Q: And the JAK1/TYK2 selectivity [4]?
A: The JAK1/TYK2 selectivity was 353.07.

Q: And the IC50 [4]?
A: The IC50 was 0.396 nM.

Reference: patent publication US20260284066A1, “TYK2 INHIBITORS AND COMPOSITIONS AND METHODS THEREOF” (LYNK PHARMACEUTICALS CO. LTD., priority 2023, published 2026)
